The values below are quoted from earlier work in patent US20080247985A1, “Composition base containing solubilized allantoin and urea for topical preparations” (priority 2007, published 2008).

The conditions of this data set: water at 25 °C.

`NC(=O)NC1NC(=O)NC1=O` (stereo not shown) [allantoin, (2,5-dioxo-4-imidazolidinyl) urea]: the Solubility in water was 0.45%.
